Measured values reported in ChEMBL document CHEMBL5528039, “Discovery of a Macrocyclic Influenza Cap-Dependent Endonuclease Inhibitor” (J Med Chem, 2024).
Active and inactive are the calls of the source. The rule behind the calls is not given here.

How the values were obtained:
Influenza A virus [1] = experiment: Antiviral activity against Influenza A virus A/PR/8/34 (H1N1) infected in MDCK cells assessed as reduction in virus-induced cytopathic effect incubated for 5 days by CCK8 based microplate spectrophotometric analysis; assay type: functional, organism-based; conditions: 120 h; for EC90: time 5 day
[2] = Prodrug conversion in BALB/c mouse assessed as Baloxavir Cmax at 5 mg/kg, po measured after 24 hrs by LC-MS/MS analysis; assay type: ADME, organism-based; conditions: in vivo
[3] = Prodrug conversion in BALB/c mouse assessed as Baloxavir half-life at 5 mg/kg, po measured after 24 hrs by LC-MS/MS analysis; assay type: ADME, organism-based; conditions: in vivo
[4] = Prodrug conversion in BALB/c mouse assessed as Baloxavir AUC (0 to last) at 5 mg/kg, po measured after 24 hrs by LC-MS/MS analysis; assay type: ADME, organism-based; conditions: in vivo
Influenza A virus [5] = experiment: Antiviral activity against Influenza A virus A/PR/8/34 infected in BALB/c mouse assessed as reduction in viral load in lungs at 5 mg/kg, po pre-infected with virus for 48 hrs followed by twice daily compound administration starting from day 2 and measured 1 hrs after last dose on day 5 by crystal violet staining based analysis; assay type: functional, organism-based; conditions: time 73.0 hrs
[6] = Inhibition of influenza A virus A/WSN/33 (H1N1) RNA polymerase transfected in HEK293T/17 cells incubated for 24 hrs by dual luciferase reporter gene assay; assay type: cell-based; conditions: HEK293T/17, 24 h
Influenza A virus [7] = experiment: Antiviral activity against Influenza A virus A/California/07/2009 (H1N1) infected in MDCK cells assessed as reduction in virus-induced cytopathic effect incubated for 5 days by CCK8 based microplate spectrophotometric analysis; assay type: functional, organism-based; conditions: 120 h
Influenza A virus [8] = experiment: Antiviral activity against Influenza A virus A/California/2/2014 (H3N2) infected in MDCK cells assessed as reduction in virus-induced cytopathic effect incubated for 5 days by CCK8 based microplate spectrophotometric analysis; assay type: functional, organism-based; conditions: 120 h
Influenza B virus [9] = experiment: Antiviral activity against Influenza B virus B/Lee/40 infected in MDCK cells assessed as reduction in virus-induced cytopathic effect incubated for 5 days by CCK8 based microplate spectrophotometric analysis; assay type: functional, organism-based; conditions: B/Lee/40, MDCK, 120 h
Influenza B virus [10] = experiment: Antiviral activity against Influenza B virus B/Florida/78/2015 infected in MDCK cells assessed as reduction in virus-induced cytopathic effect incubated for 5 days by CCK8 based microplate spectrophotometric analysis; assay type: functional, organism-based; conditions: B/Florida/78/2015, MDCK, 120 h
Influenza B virus [11] = experiment: Potency index, ratio of baloxavir EC50 to test compound EC50 for antiviral activity against Influenza B virus B/Lee/40 infected in MDCK cells assessed as reduction in virus-induced cytopathic effect incubated for 5 days by CCK8 based microplate spectrophotometric analysis; assay type: functional; conditions: time 5 day
Influenza B virus [12] = experiment: Potency index, ratio of baloxavir EC50 to test compound EC50 for antiviral activity against Influenza B virus B/Florida/78/2015 infected in MDCK cells assessed as reduction in virus-induced cytopathic effect incubated for 5 days by CCK8 based microplate spectrophotometric analysis; assay type: functional; conditions: time 5 day
COLO 205 = experiment: Cytotoxicity against human COLO 205 cells incubated for 3 days by CellTiter-Glo assay; assay type: functional; conditions: COLO 205, 72 h, time 3 day
HepG2 = experiment: Cytotoxicity against human HepG2 cells incubated for 3 days by CellTiter-Glo assay; assay type: functional; conditions: HepG2, 72 h, time 3 day
HEK293 = experiment: Cytotoxicity against HEK293 cells incubated for 3 days by CellTiter-Glo assay; assay type: functional; conditions: Homo sapiens, HEK293, 72 h; time 3 day
MRC5 = experiment: Cytotoxicity against human MRC5 cells incubated for 3 days by CellTiter-Glo assay; assay type: functional; conditions: MRC5, 72 h, time 3 day
A-375 = experiment: Cytotoxicity against human A-375 cells incubated for 3 days by CellTiter-Glo assay; assay type: functional; conditions: A-375, 72 h, time 3 day
MOLT-4 = experiment: Cytotoxicity against human MOLT-4 cells incubated for 3 days by CellTiter-Glo assay; assay type: functional; conditions: MOLT-4, 72 h, time 3 day
HEp-2 = experiment: Cytotoxicity against human HEp-2 cells incubated for 3 days by CellTiter-Glo assay; assay type: functional; conditions: HEp-2, 72 h, time 3 day
H1-HeLa = experiment: Cytotoxicity against human H1-HeLa cells incubated for 3 days by CellTiter-Glo assay; assay type: functional; conditions: 72 h, time 3 day
CCRF-CEM = experiment: Cytotoxicity against human CCRF-CEM cells incubated for 3 days by CellTiter-Glo assay; assay type: functional; conditions: 72 h, time 3 day
[13] = Selectivity index, ratio of CC50 for human MOLT-4 cells to EC50 for antiviral activity against Influenza B virus B/Lee/40 infected in MDCK cells; assay type: functional
[14] = Protein binding in mouse plasma assessed as unbound fraction at 400 uM incubated for 4 hrs by LC-MS/MS analysis; assay type: ADME, cell-free
[15] = Protein binding in dog plasma assessed as unbound fraction at 400 uM incubated for 4 hrs by LC-MS/MS analysis; assay type: ADME, cell-free, Canis lupus familiaris
[16] = Protein binding in cynomolgus monkey plasma assessed as unbound fraction at 400 uM incubated for 4 hrs by LC-MS/MS analysis; assay type: ADME, cell-free, Macaca fascicularis
[17] = Protein binding in human plasma assessed as unbound fraction at 400 uM incubated for 4 hrs by LC-MS/MS analysis; assay type: ADME, cell-free
[18] = Metabolic stability in mouse liver microsomes assessed as intrinsic clearance at 1 uM measured upto 60 mins in presence of NADPH by LC-MS/MS analysis; assay type: ADME, Microsome; conditions: 1 h
[19] = Metabolic stability in dog liver microsomes assessed as intrinsic clearance at 1 uM measured upto 60 mins in presence of NADPH by LC-MS/MS analysis; assay type: ADME, Canis lupus familiaris, Microsome; conditions: 1 h
[20] = Metabolic stability in cynomolgus monkey liver microsomes assessed as intrinsic clearance at 1 uM measured upto 60 mins in presence of NADPH by LC-MS/MS analysis; assay type: ADME, Macaca fascicularis, Microsome; conditions: 1 h
[21] = Metabolic stability in human liver microsomes assessed as intrinsic clearance at 1 uM measured upto 60 mins in presence of NADPH by LC-MS/MS analysis; assay type: ADME, Microsome; conditions: 1 h
[22] = Clearance in BALB/c mouse at 2 mg/kg, iv measured after 24 hrs by LC-MS/MS analysis; assay type: ADME, organism-based; conditions: in vivo
[23] = Volume of distribution at steady state in BALB/c mouse at 2 mg/kg, iv measured after 24 hrs by LC-MS/MS analysis; assay type: ADME, organism-based; conditions: in vivo, read-out: Vdss
[24] = Half-life in BALB/c mouse at 2 mg/kg, iv measured after 24 hrs by LC-MS/MS analysis; assay type: ADME, organism-based; conditions: in vivo
[25] = AUC (0 to last) in BALB/c mouse at 2 mg/kg, iv measured after 24 hrs by LC-MS/MS analysis; assay type: ADME, organism-based; conditions: in vivo
[26] = Clearance in Beagle dog at 0.25 mg/kg, iv measured after 24 hrs by LC-MS/MS analysis; assay type: ADME, organism-based, Canis lupus familiaris; conditions: in vivo
[27] = Volume of distribution at steady state in Beagle dog at 0.25 mg/kg, iv measured after 24 hrs by LC-MS/MS analysis; assay type: ADME, organism-based, Canis lupus familiaris; conditions: in vivo, read-out: Vdss
[28] = Half-life in Beagle dog at 0.25 mg/kg, iv measured after 24 hrs by LC-MS/MS analysis; assay type: ADME, organism-based, Canis lupus familiaris; conditions: in vivo
[29] = AUC (0 to last) in Beagle dog at 0.25 mg/kg, iv measured after 24 hrs by LC-MS/MS analysis; assay type: ADME, organism-based, Canis lupus familiaris; conditions: in vivo
[30] = Clearance in cynomolgus monkey at 0.25 mg/kg, iv measured after 24 hrs by LC-MS/MS analysis; assay type: ADME, organism-based, Macaca fascicularis; conditions: in vivo
[31] = Volume of distribution at steady state in cynomolgus monkey at 0.25 mg/kg, iv measured after 24 hrs by LC-MS/MS analysis; assay type: ADME, organism-based, Macaca fascicularis; conditions: in vivo, read-out: Vdss
[32] = Half-life in cynomolgus monkey at 0.25 mg/kg, iv measured after 24 hrs by LC-MS/MS analysis; assay type: ADME, organism-based, Macaca fascicularis; conditions: in vivo
[33] = AUC (0 to last) in cynomolgus monkey at 0.25 mg/kg, iv measured after 24 hrs by LC-MS/MS analysis; assay type: ADME, organism-based, Macaca fascicularis; conditions: in vivo

SMILES: CN1C(=O)c2c(O)c(=O)ccn2N2[C@H](c3ccc(F)cc3)c3cc(F)c(F)cc3OCC[C@@H]12
- EC50 (Influenza A virus [1]): 14 nM
- EC90 (Influenza A virus [1]): 24 nM

SMILES: CN1C(=O)c2c(O)c(=O)ccn2N2[C@H](c3ccccc3F)c3cc(F)c(F)cc3OCC[C@@H]12
- EC50 (Influenza A virus [1]): 11 nM
- EC90 (Influenza A virus [1]): 16 nM

SMILES: COC(=O)OCOc1c2n(ccc1=O)N([C@@H]1c3ccccc3SCc3c1ccc(F)c3F)[C@@H]1COCCN1C2=O [BALOXAVIR MARBOXIL]
- Cmax [2]: 145 nM
- t1/2 [3]: 4.1 h
- AUClast [4]: 0.88 µM·h
- Activity (Influenza A virus [5]): Active

SMILES: CN1C(=O)c2c(O)c(=O)ccn2N2[C@H](c3ccc(F)c(F)c3)c3cc(F)c(F)cc3OCC[C@@H]12
- EC50 (Influenza A virus [1]): 25 nM
- EC90 (Influenza A virus [1]): 42 nM

SMILES: CN1C(=O)c2c(O)c(=O)ccn2N2[C@H](c3ccccc3)c3cc(F)c(F)cc3OCC[C@@H]12
- EC50 (Influenza A virus [1]): 7.2 nM
- EC90 (Influenza A virus [1]): 12 nM
- EC50 [6]: 12.3 nM
- EC50 (Influenza A virus [7]): 2.6 nM
- EC90 (Influenza A virus [7]; time 5 day): 4.2 nM
- EC50 (Influenza A virus [8]): 1.2 nM
- EC90 (Influenza A virus [8]; time 5 day): 3.2 nM
- EC50 (Influenza B virus [9]): 8.5 nM
- EC90 (Influenza B virus [9]; time 5 day): 16 nM
- EC50 (Influenza B virus [10]): 0.9 nM
- EC90 (Influenza B virus [10]; time 5 day): 1.6 nM
- Ratio EC50 (Influenza B virus [11]): 3
- Ratio EC50 (Influenza B virus [12]): 3
- CC50 (COLO 205): 7040 nM
- CC50 (HepG2): 5190 nM
- CC50 (HEK293): 20300 nM
- CC50 (MRC5): 20000 nM
- CC50 (A-375): 13300 nM
- CC50 (MOLT-4): 4130 nM
- CC50 (HEp-2): 12400 nM
- CC50 (H1-HeLa): 9770 nM
- CC50 (CCRF-CEM): 6480 nM
- Ratio CC50/EC50 [13]: >485
- fraction unbound at 4 h, 400 µM [14]: 0.122
- fraction unbound at 4 h, 400 µM [15]: 0.218
- fraction unbound at 4 h, 400 µM [16]: 0.382
- fraction unbound at 4 h, 400 µM [17]: 0.103
- CLH [18]: 0.1106 mL/min/kg
- CLH [19]: 0.0138 mL/min/kg
- CLH [20]: < 0.013 mL/min/kg
- CLint [21]: < 8.6 µL/min/mg
- clearance [22]: 57.4 mL/min/kg
- Vd [23]: 4.41 L/kg
- half-life [24]: 1.2 h
- AUC(0-t) at 24 h [25]: 1.32 µM·h
- clearance [26]: 20.8 mL/min/kg
- Vd [27]: 3.74 L/kg
- half-life [28]: 2.6 h
- AUC(0-t) at 24 h [29]: 0.576 µM·h
- clearance [30]: 20.8 mL/min/kg
- Vd [31]: 3.68 L/kg
- half-life [32]: 2.2 h
- AUC(0-t) at 24 h [33]: 0.458 µM·h

SMILES: CN1C(=O)c2c(O)c(=O)ccn2N2[C@H](c3ccccc3C#N)c3cc(F)c(F)cc3OCC[C@@H]12 (racemic)
- EC50 (Influenza A virus [1]): > 500 nM
- EC90 (Influenza A virus [1]): > 500 nM

SMILES: CC(C)N1C(=O)c2c(O)c(=O)ccn2N2[C@H](c3ccccc3)c3ccccc3OCC[C@@H]12 (racemic)
- EC50 (Influenza A virus [1]): 53 nM
- EC90 (Influenza A virus [1]): 105 nM
